The results in this text go back to patent US8637549B2, “Pyridons as PDK1 inhibitors” (Boehringer Ingelheim International GmbH, priority 2008, dated 2014).

Marks after values point to notes of the source that are not given here.

Test [1] has as its target T1, ΔPH-PDK1 (shortened PDK1 enzyme aa 51-359; Q66A mutation) (Homo sapiens, UniProt O15530, Q66A).
T1 construct: a shortened PDK1 enzyme (aa 51-359; Q66A mutation) is used; His6 (N, cleaved yes); made in house
T1 sequence (O15530 51-359 Q66A): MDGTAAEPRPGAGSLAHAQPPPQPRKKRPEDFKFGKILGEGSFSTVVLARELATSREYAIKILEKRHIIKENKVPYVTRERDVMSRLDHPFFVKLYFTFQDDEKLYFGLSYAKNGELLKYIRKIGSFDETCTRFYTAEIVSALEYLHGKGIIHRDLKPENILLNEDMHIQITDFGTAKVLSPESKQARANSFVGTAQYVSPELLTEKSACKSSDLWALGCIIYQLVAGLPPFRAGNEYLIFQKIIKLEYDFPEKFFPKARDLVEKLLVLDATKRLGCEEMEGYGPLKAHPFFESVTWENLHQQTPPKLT
The experiment in a line: PDK1 kinase assay II. The format is biochemical. The note with it: 10 μM compound, residual enzyme activity relative to DMSO control, values marked with asterisk (*). As for the experimental part: Another assay was developed in which a shortened PDK1 enzyme (aa 51-359; Q66A mutation) is used that carries in the N-terminal position a His6 tag that is cleaved during purification. (ΔPH-PDK1). […]
The reaction is started by adding the ATP solution and the mixture is incubated for 120 min at ambient temperature; at the start of the reaction the dishes are shaken gently. […] Then the plate is stuck down with sealing tape, 25 μL/well of scintillation solution (Microscint 0; Messrs. Perkin Elmer; No. 6013611) are added and the amount of P33 precipitated is measured using the Wallac Betacounter. The measured data are evaluated using Graphpad Prism software.
(§1) The % CTL values indicate the residual activity of the enzyme after the addition of the inhibitory compound in the solvent DMSO in relation to the enzyme activity in the solvent DMSO without the addition of a compound (control). The majority of the values were determined using the PDK1 kinase assay III described hereinbefore. The values marked with an asterisk (*) were determined using the PDK1 kinase assay II described hereinbefore.

The target of another test is T2, His6-PDK1 (aa 52-556) (Homo sapiens, UniProt O15530).
T2 construct: 15 μL His6-PDK1 (aa 52-556) 3.33 ng/well) and PDKtide; host or cells: baculovirus-infected insect cells
T2 sequence (O15530 52-556): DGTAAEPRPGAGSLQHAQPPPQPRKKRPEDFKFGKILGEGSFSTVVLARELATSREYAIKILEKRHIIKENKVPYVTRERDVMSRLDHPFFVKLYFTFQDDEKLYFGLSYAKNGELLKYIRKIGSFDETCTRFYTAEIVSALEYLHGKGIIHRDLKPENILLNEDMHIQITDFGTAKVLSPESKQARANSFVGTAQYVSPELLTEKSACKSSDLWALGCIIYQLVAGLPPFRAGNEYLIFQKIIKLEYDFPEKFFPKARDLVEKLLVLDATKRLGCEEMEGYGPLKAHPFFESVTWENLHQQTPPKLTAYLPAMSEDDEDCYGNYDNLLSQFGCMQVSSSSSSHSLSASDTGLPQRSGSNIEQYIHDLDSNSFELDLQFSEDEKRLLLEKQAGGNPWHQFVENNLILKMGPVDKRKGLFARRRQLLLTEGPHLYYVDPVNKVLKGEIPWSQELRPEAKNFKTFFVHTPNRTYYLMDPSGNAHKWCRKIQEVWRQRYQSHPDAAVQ
The experiment in a line: PDK1 kinase assay III (with Tween 20). The format is biochemical. Particulars: 10 μM compound, residual enzyme activity relative to DMSO control, unmarked values, read-out: % CTL. On the procedure:
Another PDK1 assay was developed which by comparison with PDK1 assay 1 additionally contains Tween 20:
The following components are combined in a well of a 96-well round-based dish (Messrs. Greiner bio-one, No. 650101): • 15 μL of compound to be tested in varying concentrations (e.g. Starting at 10 μM, and diluted in steps of 1:5) in APT buffer (50 mM tris/C1 pH7.5; 0.05% β-mercaptoethanol; 10 mM Mg-acetate; 0.0166% Tween 20; 3.33% DMSO) • 15 μL His6-PDK1 (aa 52-556) 3.33 ng/well) and PDKtide (KTFCGTPEYLAPEVRRE […]), synthesised by Pepceuticals Limited, Nottingham, United Kingdom; 25 μM final concentration); His6-PDK1 and PDKtide are together diluted accordingly in assay buffer (50 mM tris pH 7.5, 0.05% β-mercaptoethanol, 10 mM Mg-acetate); PDKtide is present in this mixture as an 83.3 μM solution. These 30 μL are routinely incubated for 30 min at RT. • 20 μL ATP solution (25 μM ATP with 1.0 μCi/well gamma-P33-ATP). The final concentration of Tween 20 is 0.005%.
The reaction is started by adding the ATP solution and the mixture is incubated for 90 min at ambient temperature; at the start of the reaction the dishes are shaken gently. The reaction is stopped by the addition of 50 μL/well of 500 mM phosphoric acid (H3PO4) and incubated for about 20 min at ambient temperature. The precipitate is transferred by harvesting onto filter plates (96-well microtitre filter plate: UniFilter GF/C; Messrs Perkin Elmer; No. 6005174), then washed 6 times with 50 mM H3PO4 and dried at 60° C. Then the plate is stuck down with sealing tape, 25 μL/well of scintillation solution (Microscint 0; Messrs. Perkin Elmer; No. 6013611) are added and the amount of P33 precipitated is measured using the Wallac Betacounter. The measured data are evaluated using Graphpad Prism software.
as §1

Turning to `CN(C)Cc1ccc(Nc2ncc3cc(C#CCNC(=O)c4cccn(Cc5cccnc5)c4=O)ccc3n2)cc1` [II-5, N-{3-[2-({4-[(dimethylamino)methyl]phenyl}amino)quinazolin-6-yl]prop-2-yn-1-yl}-2-oxo-1-(pyridin-3-ylmethyl)-1,2-dihydropyridine-3-carboxamide], the “% CTL” value in test [1] is 15.6* %.
Same read-out and setting: in the case of `CN1CCC(N(C)c2ccc(Nc3ncc4cc(C#CCNC(=O)c5cccn(Cc6ccc(C(F)(F)F)nc6)c5=O)ccc4n3)cc2)CC1` [II-8, N-{3-[2-({4-[methyl(1-methylpiperidin-4-yl)amino]phenyl}amino)quinazolin-6-yl]prop-2-yn-1-yl}-2-oxo-1-{[6-(trifluoromethyl)pyridin-3-yl]methyl}-1,2-dihydropyridine-3-carboxamide] it was 47.0* %.
As to `CN1CCC(N(C)c2ccc(Nc3ncc4cc(/C=C/CNC(=O)c5cccn(Cc6ccc(C(F)(F)F)nc6)c5=O)ccc4n3)cc2)CC1` [III-15, N-{(2E)-3-[2-({4-[methyl(1-methylpiperidin-4-yl)amino]phenyl}amino)quinazolin-6-yl]prop-2-en-1-yl}-2-oxo-1-{[6-(trifluoromethyl)pyridin-3-yl]methyl}-1,2-dihydropyridine-3-carboxamide], the remaining activity at 10 µM at His6-PDK1 (aa 52-556) worked out at 21%.
The same measure, in the same setting: in the case of `O=C1Nc2cc(/C=C/CNC(=O)c3cccn(Cc4ccc(Cl)nc4)c3=O)ccc2/C1=C/c1ccc[nH]1` [I-2, 1-[(6-chloropyridin-3-yl)methyl]-2-oxo-N-{(2E)-3-[(3Z)-2-oxo-3-(1H-pyrrol-2-ylmethylidene)-2,3-dihydro-1H-indol-6-yl]prop-2-en-1-yl}-1,2-dihydropyridine-3-carboxamide] it was 21.4%; in that of `CN(C)CCNC(=O)c1cccc(-c2c[nH]c(/C=C3\C(=O)Nc4cc(/C=C/CNC(=O)c5cccn(Cc6ccc(Cl)nc6)c5=O)ccc43)c2)c1` [I-3, 1-[(6-chloropyridin-3-yl)methyl]-N-{(2E)-3-[(3Z)-3-{[4-(3-{[2-(dimethylamino)-ethyl]carbamoyl}phenyl)-1H-pyrrol-2-yl]methylidene}-2-oxo-2,3-dihydro-1H-indol-6-yl]prop-2-en-1-yl}-2-oxo-1,2-dihydropyridine-3-carboxamide], 18.9%.
